Experiments:
Experiment in all cases: relative viability (nuclei count vs DMSO), 5 days (fraction); higher = more cells survive
Dinaciclib + Linsitinib = compound: CCc1cnn2c(NCc3ccc[n+]([O-])c3)cc(N3CCCC[C@H]3CCO)nc12 [Dinaciclib] + C[C@]1(O)C[C@@H](c2nc(-c3ccc4ccc(-c5ccccc5)nc4c3)c3c(N)nccn32)C1 [Linsitinib] (partner 1 µM)
Outline: (§1)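 One day after seeding in 1536-well plates, lung cancer cell lines were dosed by pin tool. Dosing was either single-drug or a fixed anchor-drug dose plus five library-drug doses (not always all listed) in √10 steps. After 5 days, nuclei were stained in one fix-and-stain step and counted on 4× images, and relative viability is the nuclei count of treated wells over that of vehicle wells, given as the median of duplicate plates.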

Dinaciclib + Tozasertib = compound: CCc1cnn2c(NCc3ccc[n+]([O-])c3)cc(N3CCCC[C@H]3CCO)nc12 [Dinaciclib] + Cc1cc(Nc2cc(N3CCN(C)CC3)nc(Sc3ccc(NC(=O)C4CC4)cc3)n2)n[nH]1 [Tozasertib] (partner 0.1 µM)
Outline: as §1

Dinaciclib + Pemetrexed = compound: CCc1cnn2c(NCc3ccc[n+]([O-])c3)cc(N3CCCC[C@H]3CCO)nc12 [Dinaciclib] + Nc1nc2[nH]cc(CCc3ccc(C(=O)N[C@@H](CCC(=O)O)C(=O)O)cc3)c2c(=O)[nH]1 [Pemetrexed] (partner 0.2 µM)
Outline: as §1

Dinaciclib + Phenformin = compound: CCc1cnn2c(NCc3ccc[n+]([O-])c3)cc(N3CCCC[C@H]3CCO)nc12 [Dinaciclib] + N=C(N)NC(=N)NCCc1ccccc1 [Phenformin] (partner 250 µM)
Outline: as §1

Dinaciclib + Bortezomib = compound: CCc1cnn2c(NCc3ccc[n+]([O-])c3)cc(N3CCCC[C@H]3CCO)nc12 [Dinaciclib] + CC(C)C[C@H](NC(=O)[C@H](Cc1ccccc1)NC(=O)c1cnccn1)B(O)O [Bortezomib] (partner 0.002 µM)
Outline: as §1

Cell Line	relative viability (Dinaciclib + Linsitinib; first compound 0.009487 µM)	relative viability (Dinaciclib + Linsitinib; first compound 0.03 µM)	relative viability (Dinaciclib + Linsitinib; first compound 0.09487 µM)	relative viability (Dinaciclib + Linsitinib; first compound 0.3 µM)	relative viability (Dinaciclib + Tozasertib; first compound 0.009487 µM)	relative viability (Dinaciclib + Tozasertib; first compound 0.03 µM)	relative viability (Dinaciclib + Tozasertib; first compound 0.09487 µM)	relative viability (Dinaciclib + Tozasertib; first compound 0.3 µM)	relative viability (Dinaciclib + Pemetrexed; first compound 0.009487 µM)	relative viability (Dinaciclib + Pemetrexed; first compound 0.03 µM)	relative viability (Dinaciclib + Pemetrexed; first compound 0.09487 µM)	relative viability (Dinaciclib + Pemetrexed; first compound 0.3 µM)	relative viability (Dinaciclib + Phenformin; first compound 0.009487 µM)	relative viability (Dinaciclib + Phenformin; first compound 0.03 µM)	relative viability (Dinaciclib + Phenformin; first compound 0.09487 µM)	relative viability (Dinaciclib + Phenformin; first compound 0.3 µM)	relative viability (Dinaciclib + Bortezomib; first compound 0.009487 µM)	relative viability (Dinaciclib + Bortezomib; first compound 0.03 µM)	relative viability (Dinaciclib + Bortezomib; first compound 0.09487 µM)	relative viability (Dinaciclib + Bortezomib; first compound 0.3 µM)
NCI-H322M	0.925	0.477	0.224	0.229	0.417	0.263	0.303	0.259	0.569	0.326	0.313	0.343	0.41	0.315	0.244	0.267	1.26	1.26	0.52	0.187
NCI-H1651	0.775	0.307	0.0746	0.0549	0.633	0.58	0.0798	0.0626	0.596	0.51	0.112	0.0533	0.26	0.219	0.0746	0.0547	0.96	0.763	0.25	0.0931
HARA	0.758	0.0716	0.0363	0.038	0.105	0.0553	0.0492	0.0424	0.24	0.172	0.122	0.0976	0.518	0.129	0.0472	0.0313	0.888	0.0756	0.0605	0.0587
H3255	1.09	0.493	0.177	0.186	0.678	0.578	0.256	0.218	0.633	0.423	0.227	0.213	0.333	0.305	0.315	0.28	0.734	0.227	0.15	0.169
NCI-H441	0.811	0.129	0.115	0.113	0.603	0.223	0.23	0.175	0.263	0.168	0.12	0.128	0.688	0.184	0.164	0.136	0.45	0.158	0.2	0.143
CAL-12T	0.452	0.175	0.112	0.145	0.166	0.0862	0.0939	0.0838	0.771	0.141	0.133	0.13	0.188	0.103	0.107	0.097	0.484	0.203	0.142	0.127
NCI-H1437	0.839	0.112	0.0939	0.0919	0.356	0.165	0.141	0.131	0.343	0.149	0.158	0.12	0.279	0.187	0.17	0.13	0.376	0.205	0.0732	0.0751
HOP-62	1.01	0.203	0.0716	0.0565	0.293	0.13	0.0833	0.075	0.255	0.0991	0.094	0.0662	0.54	0.299	0.0816	0.0886	0.643	0.0795	0.0423	0.0609
EPLC-272H	1.29	0.665	0.33	0.0559	0.229	0.0357	0.0443	0.0467	0.189	0.0576	0.0509	0.0711	0.344	0.122	0.0306	0.0277	0.89	0.57	0.0541	0.0535
COR-L 105	0.55	0.239	0.245	0.249	0.369	0.304	0.25	0.208	0.91	0.291	0.348	0.295	0.384	0.217	0.208	0.201	0.61	0.192	0.219	0.212
HCC-366	0.543	0.0298	0.0149	0.0167	0.136	0.0294	0.0259	0.0198	0.171	0.0414	0.0345	0.0329	0.593	0.137	0.03	0.0292	0.779	0.0262	0.0219	0.0175
HCC-44	0.461	0.119	0.122	0.103	0.594	0.204	0.206	0.184	0.665	0.695	0.388	0.351	0.138	0.105	0.0633	0.0778	0.883	0.115	0.106	0.102
NCI-H2009	1.12	0.283	0.105	0.104	0.599	0.231	0.112	0.106	0.977	0.459	0.0817	0.0842	0.463	0.159	0.11	0.105	0.88	0.101	0.069	0.0948
NCI-H23	0.508	0.142	0.105	0.109	0.246	0.131	0.116	0.13	0.445	0.156	0.113	0.117	0.807	0.31	0.114	0.116	0.637	0.185	0.0983	0.106

Source: the supplement of paper PMC10307832
